For orientation: IC50 means the concentration that gives 50% inhibition. A higher IC50 goes with lower potency.

In one assay the target is T1, DPP-IV (Homo sapiens, UniProt P27487).
T1 construct: purchased R&D 1180-SE
As to the kind of experiment: Active inhibition DPP-IV assay (Gly-Pro-AMC substrate, fluorescence). The note with it: Gly-Pro-AMC 10 μM, 25 mM Tris pH 8.0. In kind it is biochemical. The procedure: (§1) The following methods were used for testing the inhibitive action of the compound disclosed herein against DPP-IV, DPP-8 and DPP-9 enzymatic activity. The inhibitive ability of the compound disclosed herein against enzymatic activity of DPP-IV, DPP-8 and DPP-9 was tested. The measurements of the inhibition ratio or the 50% inhibiting concentration IC50 of every compound were based on a fixed quantity of enzyme-substrate mixtures and different concentrations of the test compounds.
DPP-IV enzyme was purchased from R&D, Catalog No. 1180-SE.
(§2) The test compound was dissolved in an appropriate amount of DMSO to prepare 100 mM mother liquor, which was divided into EP tubes and preserved at −20° C. The mother liquor was diluted with an assay buffer to prepare solutions with required concentrations. Sample solutions with different concentrations (4 μL) and certain concentration of DPP-IV (DPP-8 or DPP-9) solution (4 μL) were added into 384-well plates in turn. Referred to the instruction manual, Gly-Pro-AMC was selected as a substrate and the concentration thereof was 10 μM. The 16 mM mother liquor was prepared from the substrate and preserved at −20° C. for use. The 16 mM mother liquor was diluted with an assay buffer to a solution of known concentration. The assay buffer of DPP-IV was 25 mM Tris, and its pH was 8.0. The assay buffers of DPP-8 and DPP-9 were 50 mM Tris, and their pH was 7.5. The substrate mother liquor was diluted with an assay buffer, and the mixture (4 μL) was added into 384-well plates to prepare final solution concentration. The whole process was carried out in an ice bath. After the addition of the components of the assay system was completed, the system was centrifuged. The supernatant was then transferred to an Infinite F200 multifunctional microplate reader, and 20 fluorescence values were recorded every 30 sec. And then Slope (V0) was calculated directly by the software of microplate reader, fetching the data in the linear range. The measured reaction rate and the corresponding inhibition concentration were analyzed. Percent inhibition is I(%)=(V0−Vi)/V0×100%. Vi represents the initial reaction rate at different inhibition concentrations. V0 represents the initial reaction rate without inhibitor. Vi/V0 represents the inhibition level of inhibitor. Relevant curve chart was made with inhibition concentration as a horizontal coordinate and the value of Vi/V0 as a vertical coordinate. The IC50 values were calculated by Graph Pad Prism statistical analysis software.

The next assay has as its target T2, DPP-8 (Homo sapiens, UniProt Q6V1X1).
T2 construct: purchased Biomol SE-827
As to the kind of experiment: Active inhibition DPP-8 assay (Gly-Pro-AMC substrate, fluorescence). Format: biochemical. The note with it: Gly-Pro-AMC 10 μM, 50 mM Tris pH 7.5. The method, then:
as §1
DPP-8 enzyme was purchased from Biomol, Catalog No. SE-827.
as §2

The target of the next assay is T3, DPP-9 (Homo sapiens, UniProt Q86TI2).
T3 construct: purchased Bioscience 80090
T3 sequence (Q86TI2 whole entry): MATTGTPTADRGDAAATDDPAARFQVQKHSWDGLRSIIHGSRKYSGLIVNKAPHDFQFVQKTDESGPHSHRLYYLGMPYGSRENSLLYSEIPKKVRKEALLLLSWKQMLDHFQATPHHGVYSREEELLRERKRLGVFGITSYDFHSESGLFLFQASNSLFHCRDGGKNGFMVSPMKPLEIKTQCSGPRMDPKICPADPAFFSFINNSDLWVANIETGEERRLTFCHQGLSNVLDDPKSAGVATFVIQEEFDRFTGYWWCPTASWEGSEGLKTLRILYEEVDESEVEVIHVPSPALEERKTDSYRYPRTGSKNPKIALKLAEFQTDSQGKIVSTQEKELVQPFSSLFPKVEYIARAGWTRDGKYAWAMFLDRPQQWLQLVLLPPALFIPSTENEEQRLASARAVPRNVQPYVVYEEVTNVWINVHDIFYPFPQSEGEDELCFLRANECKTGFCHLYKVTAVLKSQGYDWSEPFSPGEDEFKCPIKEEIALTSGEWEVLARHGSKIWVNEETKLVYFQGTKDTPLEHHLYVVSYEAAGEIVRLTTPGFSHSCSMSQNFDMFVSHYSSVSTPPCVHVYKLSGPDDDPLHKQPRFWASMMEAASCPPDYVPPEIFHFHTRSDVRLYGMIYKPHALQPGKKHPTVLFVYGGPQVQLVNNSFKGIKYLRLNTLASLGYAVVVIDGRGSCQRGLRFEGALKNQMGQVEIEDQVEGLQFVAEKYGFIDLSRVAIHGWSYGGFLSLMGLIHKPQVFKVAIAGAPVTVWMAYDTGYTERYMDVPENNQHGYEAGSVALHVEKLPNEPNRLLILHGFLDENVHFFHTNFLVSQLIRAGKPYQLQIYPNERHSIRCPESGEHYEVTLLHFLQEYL
As to the kind of experiment: Active inhibition DPP-9 assay (Gly-Pro-AMC substrate, fluorescence). In kind it is biochemical. The following applies: Gly-Pro-AMC 10 μM, 50 mM Tris pH 7.5. The method, then:
as §1
DPP-9 enzyme was purchased from Bioscience, Catalog No. 80090.
as §2

Another assay deals with normal C57BL/6 mice. Nature of the assay: Effects of DPP-IV inhibitors on the blood glucose of normal C57BL/6 mice (oral glucose tolerance). In kind it is in vivo. The following applies: oral 5 mg/kg; for Nor-sugar rate % (5 mg/kg): male C57BL/6 mice, glucose 2.5 g/kg by gavage 30 min after administration; for hypoglycemic activities for C57BL/6 mice: conclusion in words. The method, then: The effects of the test compounds on the oral glucose tolerance of normal C57BL/6 mice were observed, and the hypoglycemic activities of these compounds in vivo were evaluated preliminarily.
Preparation procedure: Drugs were accurately weighed, and 5 mg of compounds of examples 3, 9 15, 16 and 17 were dissolved respectively in 20 mL of normal saline to obtain 0.25 mg/mL solutions.
Administrated Dose: The oral dose was 5 mg/kg and the gavage dose was 0.02 mL/g.
Test Method: The normal male C57BL/6 mice were grouped randomly into a blank control group, a positive control group, and treatment groups having 7 mice each group.
Administration and Serum Glucose Determination: C57BL/6 mice of each group were fasted for 18 hours before the experiment. The blood was drawn from the caudal vein of the mice and the glucose level was measured by using a blood-glucose meter. After detection, 0.25 mg/mL of positive control, 0.25 mg/mL of examples 3, 9, 15, 16 and 17 and normal saline were respectively administered to the positive control group, treatment groups and blank control group by intragastric administration. The blood glucose level (0 min) of positive control group was measured in 60 min after administration. The blood glucose levels (0 min) of the other groups were measured in 30 min after administration, and then glucose (2.5 g/kg) was administered to the mice through gavage. The blood was drawn from the caudal vein of the mice in 15 min, 30 min, 45 min, 60 min, 120 min after administration. The blood glucose levels of C57BL/6 mice were measured continuously by blood-glucose meter.
1. Glucose concentration-time curve was plotted, and AUC from 0 to 120 min and hypoglycemic rate of each dosage group at blood glucose peak were calculated.
2. Experimental data were represented in x±SD. The data were analyzed by SPSS 16.0 software. The data were compared between multiple groups using nonparametric Kruskal-Wallis H test method.

Structures are written as SMILES.

T2 sequence (Q6V1X1 whole entry): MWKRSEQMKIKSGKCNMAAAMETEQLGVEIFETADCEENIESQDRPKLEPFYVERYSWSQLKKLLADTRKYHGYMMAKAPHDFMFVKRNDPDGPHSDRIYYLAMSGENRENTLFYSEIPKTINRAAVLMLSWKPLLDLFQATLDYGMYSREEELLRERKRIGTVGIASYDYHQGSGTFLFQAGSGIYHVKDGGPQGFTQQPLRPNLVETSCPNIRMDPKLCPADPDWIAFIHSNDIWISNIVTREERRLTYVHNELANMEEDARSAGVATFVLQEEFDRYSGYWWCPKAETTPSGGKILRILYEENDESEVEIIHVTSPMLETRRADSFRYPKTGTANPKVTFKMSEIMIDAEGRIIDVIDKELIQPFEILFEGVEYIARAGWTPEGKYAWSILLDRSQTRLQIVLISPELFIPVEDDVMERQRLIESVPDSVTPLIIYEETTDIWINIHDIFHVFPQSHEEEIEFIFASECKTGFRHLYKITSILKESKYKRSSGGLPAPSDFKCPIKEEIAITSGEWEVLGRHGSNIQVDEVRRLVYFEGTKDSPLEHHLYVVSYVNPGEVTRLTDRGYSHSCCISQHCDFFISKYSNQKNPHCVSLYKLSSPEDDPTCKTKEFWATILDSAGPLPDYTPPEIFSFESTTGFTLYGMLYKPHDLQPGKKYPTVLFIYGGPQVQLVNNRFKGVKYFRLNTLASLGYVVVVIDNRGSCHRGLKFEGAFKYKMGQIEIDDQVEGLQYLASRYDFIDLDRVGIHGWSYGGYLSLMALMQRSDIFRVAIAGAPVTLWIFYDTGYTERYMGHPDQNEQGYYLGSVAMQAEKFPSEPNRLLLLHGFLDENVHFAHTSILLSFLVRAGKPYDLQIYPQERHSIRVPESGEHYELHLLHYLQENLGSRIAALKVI
T1 sequence (P27487 whole entry): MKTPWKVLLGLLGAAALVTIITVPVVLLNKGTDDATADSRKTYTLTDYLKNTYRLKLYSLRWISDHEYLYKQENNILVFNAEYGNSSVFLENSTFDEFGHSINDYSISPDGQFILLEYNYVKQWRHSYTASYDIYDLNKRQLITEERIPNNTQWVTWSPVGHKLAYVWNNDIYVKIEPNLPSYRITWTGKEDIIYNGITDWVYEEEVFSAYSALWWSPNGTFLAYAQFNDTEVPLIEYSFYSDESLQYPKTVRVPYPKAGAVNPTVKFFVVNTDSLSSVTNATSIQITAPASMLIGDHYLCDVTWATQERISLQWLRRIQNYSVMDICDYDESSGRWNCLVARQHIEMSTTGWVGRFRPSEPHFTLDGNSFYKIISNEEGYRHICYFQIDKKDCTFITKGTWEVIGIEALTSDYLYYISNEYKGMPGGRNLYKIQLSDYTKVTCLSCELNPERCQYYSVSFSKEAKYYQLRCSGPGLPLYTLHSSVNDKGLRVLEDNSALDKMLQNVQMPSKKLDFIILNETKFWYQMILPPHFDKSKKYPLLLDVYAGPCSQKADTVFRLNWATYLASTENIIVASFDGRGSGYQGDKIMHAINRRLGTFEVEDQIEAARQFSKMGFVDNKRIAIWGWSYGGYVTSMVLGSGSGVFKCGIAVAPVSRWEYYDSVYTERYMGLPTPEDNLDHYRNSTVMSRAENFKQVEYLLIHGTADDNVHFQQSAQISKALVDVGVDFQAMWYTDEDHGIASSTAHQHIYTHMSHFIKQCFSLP

Consider `C[C@@]1(NCC(=O)N2C[C@@H](F)C[C@H]2C#N)C[C@H]2CC(C#N)C[C@H]2C1` (stereo partly drawn) [Example 15, (2S,4S)-1-(2-(((2s,3aR,6aS)-5-cyano-2-methyloctahydropentalen-2-yl)amino)acetyl)-4-fluoropyrrolidine-2-carbonitrile], for which the IC50 was found to be 1.56 nM against DPP-IV, 1260 nM on DPP-8 and 20 nM against DPP-9. In the assay on normal C57BL/6 mice, the “Nor-sugar rate % (5 mg/kg)” value was 24.72%. Further, the “hypoglycemic activities for C57BL/6 mice” value with normal C57BL/6 mice is “good hypoglycemic activities”.

On to `C[C@@]1(NCC(=O)N2CCC[C@H]2C#N)C[C@H]2CC(C#N)C[C@H]2C1` (stereo partly drawn) [Example 16, (2S)-1-(2-(((2s,3aR,6aS)-5-cyano-2-methyloctahydropentalen-2-yl)amino)acetyl)pyrrolidine-2-carbonitrile], for which the IC50 on DPP-IV was found to be 1.37 nM; at DPP-8 it was 12800 nM; against DPP-9, 340 nM. In addition, the “Nor-sugar rate % (5 mg/kg)” value with normal C57BL/6 mice was 24.69%. Moreover, the “hypoglycemic activities for C57BL/6 mice” value in the assay with normal C57BL/6 mice is “good hypoglycemic activities”.

In the case of `CC(=O)O[C@@H]1C[C@@H]2C[C@@](C)(NCC(=O)N3C[C@@H](F)C[C@H]3C#N)C[C@@H]2C1` [Example 17, (2S,3aR,5r,6aS)-5-((2-((2S,4S)-2-cyano-4-fluoropyrrolidin-1-yl)-2-oxoethyl)amino)-5-methyloctahydropentalen-2-yl acetate], the IC50 stood at 2.72 nM against DPP-IV, 3700 nM at DPP-8 and 48 nM at DPP-9. Besides, in the assay on normal C57BL/6 mice, the “Nor-sugar rate % (5 mg/kg)” value is 30.4%. In addition, the “hypoglycemic activities for C57BL/6 mice” value in the assay on normal C57BL/6 mice is recorded as “good hypoglycemic activities”.
